Experimental data taken from ChEMBL document CHEMBL2396627, “Novel artemisinin derivatives with potential usefulness against liver/colon cancer and viral hepatitis” (Bioorg Med Chem, 2013).
The source made the active and inactive calls. The calls are words filed in the database; no cut-off is given here.

Columns and labels:
[1] = Cytotoxicity against human HepG2(2.2.15) cells assessed as reduction in cell viability at 1 uM measured on day 21 by natural Red test; assay type: cell-based; settings: hepg2 2.2.15, 1 µM
[2] = tested on: Bovine viral diarrhea virus strain Oregon C24V; experiment: Antiviral activity against Bovine viral diarrhea virus Oregon C24V genotype 1 […] assessed as reduction in viral RNA release at 50 uM by RT-PCR analysis; assay type: functional
[3] = Acute toxicity in bovine EBTr cells infected with BVDV assessed as reduction in cell viability at 50 uM after 72 hrs; assay type: cell-based, Bos taurus; settings: cattle
[4] = Acute toxicity in bovine EBTr cells at 50 uM after 72 hrs; assay type: cell-based, Bos taurus; settings: cattle
[5] = tested on: EBTr; experiment: Antiviral activity against Bovine viral diarrhea virus Oregon C24V genotype 1 […] infected in bovine EBTr cells assesed as inhibition of virus-induced cytopathic effect at 20 to 100 uM after 72 hrs by MTT assay; assay type: functional, cell-based; settings: Bovine viral diarrhea virus strain Oregon C24V
[6] = Cytotoxicity against bovine EBTr cells up to 100 uM after 72 hrs by MTT assay; assay type: cell-based, Bos taurus; settings: cattle
[7] = Acute toxicity in human LS 174T cells at IC50 after 6 hrs by formazan test; assay type: cell-based; settings: ls174t
[8] = tested on: HepG2; experiment: Acute toxicity in human HepG2 cells at IC50 after 6 hrs by formazan test; assay type: cell-based; settings: hepg2, 6 h
[9] = tested on: SK-HEP1; experiment: Acute toxicity in human SKHEP1 cells at IC50 after 6 hrs by formazan test; assay type: cell-based; settings: sk-hep1, 6 h
[10] = tested on: SK-HEP1; experiment: Cytotoxicity against human SKHEP1 cells after 72 hrs by formazan test; assay type: functional, cell-based; settings: for IC50: SK-HEP1, 72 h
[11] = (§1) Cytotoxicity against human LS 174T cells after 72 hrs by formazan test; assay type: functional, cell-based; settings: LS174T
[12] = tested on: HepG2; experiment: Cytotoxicity against human HepG2 cells after 72 hrs by formazan test; assay type: functional, cell-based; settings: for IC50: HepG2, 72 h
[13] = tested on: EBTr; experiment: Antiviral activity against Bovine viral diarrhea virus Oregon C24V genotype 1 […] infected in bovine EBTr cells assesed as inhibition of virus-induced cytopathic effect at 50 uM after 72 hrs by MTT assay; assay type: functional, cell-based; settings: Bovine viral diarrhea virus strain Oregon C24V
[14] = Cytotoxicity against human HepG2(2.2.15) cells assessed as reduction in cell viability at 0.1 uM measured on day 21 by natural Red test; assay type: cell-based; settings: hepg2 2.2.15, 0.1 µM
[15] = tested on: Hepatitis B virus; experiment: Antiviral activity against Hepatitis B virus infected in human HepG2(2.2.15) cells assessed as reduction in HBV-DNA release at < 0.1 uM measured on day 21; assay type: functional; set-up: scale not given: the % may be the effect or the level left
[16] = Cytotoxicity against human HepG2(2.2.15) cells assessed as reduction in cell viability at 0.1 to 1 uM measured on day 21 by natural Red test; assay type: cell-based; settings: hepg2 2.2.15, 1 µM
[17] = Cytotoxicity against bovine EBTr cells at 20 to 100 uM after 72 hrs by MTT assay; assay type: cell-based, Bos taurus; settings: cattle
[18] = tested on: SK-HEP1; experiment: Cytotoxicity against human SKHEP1 cells incubated for 1 hr prior to ferrosanol addition measured after 72 hrs; assay type: functional, cell-based
[19] = tested on: SK-HEP1; experiment: Cytotoxicity against human SKHEP1 cells incubated for 1 hr prior to hemin addition measured after 72 hrs; assay type: functional, cell-based
[20] = tested on: SK-HEP1; experiment: Cytotoxicity against human SKHEP1 cells after 72 hrs in presence of hemin; assay type: functional, cell-based
[21] = tested on: SK-HEP1; experiment: Cytotoxicity against human SKHEP1 cells after 72 hrs in presence of ferrosanol; assay type: functional, cell-based
[22] = tested on: LS174T; experiment: as §1; assay type: functional, cell-based
[23] = tested on: EBTr; experiment: Antiviral activity against Bovine viral diarrhea virus Oregon C24V genotype 1 […] infected in bovine EBTr cells assessed as inhibition of virus-induced cytopathic effect at 50 uM incubated 1 hr prior to ferrosanol addition measured after 72 hrs; assay type: functional, cell-based; settings: Bovine viral diarrhea virus strain Oregon C24V
[24] = tested on: EBTr; experiment: Antiviral activity against Bovine viral diarrhea virus Oregon C24V genotype 1 […] infected in bovine EBTr cells assessed as inhibition of virus-induced cytopathic effect at 50 uM incubated 1 hr prior to hemin addition measured after 72 hrs; assay type: functional, cell-based; settings: Bovine viral diarrhea virus strain Oregon C24V

Structure (SMILES)	Activity [1]	Activity [2]	Activity [3]	Activity [4]	Activity [5]	Activity [6]	Activity [7]	Activity [8]	Activity [9]	IC50 [10] [µM]	IC50 [11] [µM]	IC50 [12] [µM]	Activity [13]	Activity [17]	further results
CCCC(=O)O[C@H]1O[C@@H]2O[C@@]3(C)CC[C@H]4[C@H](C)CC[C@@H]([C@H]1C)[C@@]24OO3	Toxic	inactive	Non-toxic	Non-toxic	Active	Non-toxic	Non-toxic	Non-toxic	Non-toxic	2	130	100	Active		
C[C@H]1[C@@H](OC(=O)C(F)(F)C(F)(F)F)O[C@@H]2O[C@@]3(C)CC[C@H]4[C@H](C)CC[C@@H]1[C@@]24OO3		inactive	Non-toxic	Non-toxic	Dose-dependent effect	Non-toxic				150	> 200	200	Active		Activity [14]: Toxic
C[C@H]1[C@@H](OC(=O)N(C)C)O[C@@H]2O[C@@]3(C)CC[C@H]4[C@H](C)CC[C@@H]1[C@@]24OO3		inactive	Non-toxic	Non-toxic	Dose-dependent effect	Non-toxic				25	100	70	Active		Activity [14]: Toxic
CCC(C)O[C@H]1O[C@@H]2O[C@@]3(C)CC[C@H]4[C@H](C)CC[C@@H]([C@H]1C)[C@@]24OO3 (some centres not stated)		Active	Toxic	Non-toxic	Active		Non-toxic	Non-toxic	Non-toxic	10	70	50	inactive	Toxic	Activity [15]: 50%; Activity [16]: Toxic
C[C@H]1[C@@H](OC(=O)C(C)(C)C)O[C@@H]2O[C@@]3(C)CC[C@H]4[C@H](C)CC[C@@H]1[C@@]24OO3	Toxic	Active	Toxic	Non-toxic	Active		Non-toxic	Non-toxic	Non-toxic	9	70	40	inactive	Toxic	
C[C@H]1[C@H](OC(=O)CCC(=O)O)O[C@@H]2O[C@@]3(C)CC[C@H]4[C@H](C)CC[C@@H]1[C@@]24OO3 [ARTESUNATE]							Toxic	Toxic	Toxic	10	10	20			Activity [18]: Active; Activity [19]: Active; Activity [20]: Active; Activity [21]: Active; Activity [10]: Dose-dependent effect; Activity [22]: Dose-dependent effect; Activity [12]: Dose-dependent effect
C[C@H]1[C@@H](O)O[C@@H]2O[C@@]3(C)CC[C@H]4[C@H](C)CC[C@@H]1[C@@]24OO3 [ARTENIMOL]	Toxic	Active	Toxic	Non-toxic	Active					30	120	70	Active	Toxic	Activity [10]: Dose-dependent effect; Activity [22]: Dose-dependent effect; Activity [12]: Dose-dependent effect
C[C@@H]1CC[C@H]2[C@@H](C)C(=O)O[C@@H]3O[C@@]4(C)CC[C@@H]1[C@]32OO4 [ARTEMISININ]										> 200	> 200	> 200			
CC1=CO[C@@H]2O[C@]3(C)CC[C@H]4[C@H](C)CC[C@@H]1[C@@]24OO3 [ANHYDRODIHYDROARTEMISININ]		Active	Non-toxic	Non-toxic	Dose-dependent effect	Non-toxic				30	> 200	200	Active		Activity [15]: 50%; Activity [16]: Toxic; Activity [23]: Active; Activity [24]: Active
CC(=O)O[C@H]1O[C@@H]2O[C@@]3(C)CC[C@H]4[C@H](C)CC[C@@H]([C@H]1C)[C@@]24OO3		Active	Non-toxic	Non-toxic	Dose-dependent effect	Non-toxic	Non-toxic	Non-toxic	Non-toxic	4	70	60	Active		Activity [14]: Toxic
CCCC(CCC)C(=O)O[C@H]1O[C@@H]2O[C@@]3(C)CC[C@H]4[C@H](C)CC[C@@H]([C@H]1C)[C@@]24OO3	Toxic	Active	Toxic	Non-toxic	inactive		Non-toxic	Non-toxic	Non-toxic	1	5	3	inactive	Toxic	Activity [18]: Active; Activity [19]: Active; Activity [20]: Active; Activity [21]: Active
